IC50 data for 39 compounds are collected here from patent US12617773B2, “Azetidin-3-ylmethanol derivatives as CCR6 receptor modulators” (Idorsia Pharmaceuticals Ltd, priority 2020, dated 2026).

The assay addresses T1, human CCR6 (Homo sapiens, UniProt P51684).
T1 construct: expressed in transfected cells; host or cells: HEK-293
T1 sequence (P51684 1-374): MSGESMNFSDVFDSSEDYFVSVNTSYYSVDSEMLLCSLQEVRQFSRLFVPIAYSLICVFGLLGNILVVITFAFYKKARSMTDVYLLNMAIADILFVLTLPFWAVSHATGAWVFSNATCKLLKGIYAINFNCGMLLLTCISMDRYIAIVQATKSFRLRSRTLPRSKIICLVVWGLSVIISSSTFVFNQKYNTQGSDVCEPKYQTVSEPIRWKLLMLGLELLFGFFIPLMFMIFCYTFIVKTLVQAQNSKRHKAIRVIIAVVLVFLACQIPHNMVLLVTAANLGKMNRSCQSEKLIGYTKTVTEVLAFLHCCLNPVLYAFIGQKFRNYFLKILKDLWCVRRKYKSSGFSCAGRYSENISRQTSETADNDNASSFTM
The experiment in a line: FLIPR assay (inhibition of CCL20-induced calcium signal). Type of assay: cell-based. The settings on record: HEK-293 cells expressing human CCR6; mean values where determined several times; read-out: FLIPR IC50. In short, it runs like this: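 IC50 values come from baseline-corrected peak calcium fluorescence after agonist. The agonist was CCL20 at 10 nM final, added to engineered human CCR6 HEK-293 cells following a 30-min, room-temperature, dark preincubation with serially diluted compound. Readings were taken in a fluorometric imaging plate reader.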
In the case of `COC(=O)c1ccccc1CCc1cncc([C@@](O)(c2ccc(C(C)C)cc2)C2(C)CN(C)C2)c1` [Example 409], the IC50 (in general, the midpoint of a concentration-inhibition curve) stood at 48.8 nM. As for `CC(C)c1ccc([C@](O)(c2cncc(CCc3ccccc3CO)c2)C2(C)CN(C)C2)cc1` [Example 410], the IC50 was found to be 84.9 nM. Turning to `COc1cc(C(C)(O)CCc2cncc([C@@](O)(c3ccc(C(C)C)cc3)C3(C)CN(C)C3)c2)ncn1` (stereo partly drawn) [Example 411], the IC50 was 86.3 nM.

`CC(C)c1ccc([C@](O)(c2cncc(CCC3(O)CCN(C(=O)OC(C)(C)C)C3)c2)C2(C)CN(C)C2)cc1` (stereo partly drawn) [Example 412]: the IC50 was 90 nM. Consider `CC(C)c1ccc([C@](O)(c2cncc(CCc3cc4cccnc4[nH]3)c2)C2(C)CN(C)C2)cc1` [Example 413, (R)-(1,3-Dimethyl-azetidin-3-yl)-(4-isopropyl-phenyl)-{5-[2-(1H-pyrrolo[2,3-b]pyridin-2-yl)-ethyl]-pyridin-3-yl}-methanol], for which the IC50 amounted to 36.7 nM. Consider `CC(C)c1ccc([C@](O)(c2cncc(CCC3CCN(C(=O)OC(C)(C)C)CC3)c2)C2(C)CN(C)C2)cc1` [Example 414, 4-(2-{5-[(R)-(1,3-Dimethyl-azetidin-3-yl)-hydroxy-(4-isopropyl-phenyl)-methyl]-pyridin-3-yl}-ethyl)-piperidine-1-carboxylic acid tert-butyl ester], for which the IC50 stood at 34.7 nM.

With `CC(C)c1ccc([C@](O)(c2cncc(CCC(C)(O)c3ccccn3)c2)C2(C)CN(C)C2)cc1` (stereo partly drawn) [Example 415], the IC50 was 61.9 nM. Then `CC(C)c1ccc([C@](O)(c2cncc(CCC(O)(c3ccccn3)C3CC3)c2)C2(C)CN(C)C2)cc1` (stereo partly drawn) [Example 416], with 14.7 nM. Regarding `Cc1cncc(C(C)(O)CCc2cncc([C@@](O)(c3ccc(C(C)C)cc3)C3(C)CN(C)C3)c2)c1` (stereo partly drawn) [Example 417], the IC50 was 118 nM. Regarding `CC(C)c1ccc([C@](O)(c2cnnc(CCC3(O)CCCc4cccnc43)c2)C2(C)CN(C)C2)cc1` (stereo partly drawn) [Example 418, 8-(2-{5-[(R)-(1,3-Dimethyl-azetidin-3-yl)-hydroxy-(4-isopropyl-phenyl)-methyl]-pyridazin-3-yl}-ethyl)-5,6,7,8-tetrahydro-quinolin-8-ol], the IC50 stood at 190 nM.

On to `COc1cccc(C(C)(O)CCc2cc([C@@](O)(c3ccc(C(C)C)cc3)C3(C)CN(C)C3)cnn2)n1` (stereo partly drawn) [Example 419, 4-{5-[(R)-(1,3-Dimethyl-azetidin-3-yl)-hydroxy-(4-isopropyl-phenyl)-methyl]-pyridazin-3-yl}-2-(6-methoxy-pyridin-2-yl)-butan-2-ol], for which the IC50 was 155 nM. With `Cc1cccc(C(C)(O)CCc2cc([C@@](O)(c3ccc(C(C)C)cc3)C3(C)CN(C)C3)cnn2)n1` (stereo partly drawn) [Example 420, 4-{5-[(R)-(1,3-Dimethyl-azetidin-3-yl)-hydroxy-(4-isopropyl-phenyl)-methyl]-pyridazin-3-yl}-2-(6-methyl-pyridin-2-yl)-butan-2-ol] the figure was 277 nM; with `CC(C)c1ccc(C(O)(c2cccc(N3CCCC3)n2)C2(C)CN(C)C2)cc1` (stereo not drawn) [Example 421, (1,3-Dimethyl-azetidin-3-yl)-(4-isopropyl-phenyl)-(6-pyrrolidin-1-yl-pyridin-2-yl)-methanol], 712 nM.

As to `CC(=O)N1CCC(F)(c2nc(-c3cncc([C@@](O)(c4ccc(C(C)C)cc4)C4(C)CN(C)C4)c3)no2)CC1` [Example 422], the half-maximal inhibitory concentration (IC50) is 66.7 nM. Take `CC(=O)N1CCC(C)(c2nc(-c3cncc([C@@](O)(c4ccc(C(C)C)cc4)C4(C)CN(C)C4)c3)no2)CC1` [Example 423]: the IC50 came to 61.8 nM. As to `CC(C)c1ccc([C@](O)(c2cncc(OC3CCC(=O)CC3)c2)C2(C)CN(C)C2)cc1` [Example 424, 4-{5-[(R)-(1,3-Dimethyl-azetidin-3-yl)-hydroxy-(4-isopropyl-phenyl)-methyl]-pyridin-3-yloxy}-cyclohexanone], the IC50 was 107 nM. For the compound `CC(C)c1ccc([C@](O)(c2cncc(C3CCC(O)CC3)c2)C2(C)CN(C)C2)cc1` (stereo partly drawn) [Example 425, 4-{5-[(R)-(1,3-Dimethyl-azetidin-3-yl)-hydroxy-(4-isopropyl-phenyl)-methyl]-pyridin-3-yl}-cyclohexanol], the IC50 came out at 1730 nM. Regarding `CC(C)c1ccc([C@](O)(c2cncc(COC3CCCC3)c2)C2(C)CN(C)C2)cc1` [Example 426, (R)-(5-Cyclopentyloxymethyl-pyridin-3-yl)-(1,3-dimethyl-azetidin-3-yl)-(4-isopropyl-phenyl)-methanol], the half-inhibitory concentration (IC50) turned out to be 17.7 nM. With `CC(=O)N1CCC(OCc2cncc([C@@](O)(c3ccc(C(C)C)cc3)C3(C)CN(C)C3)c2)CC1` [Example 427], the IC50 stood at 292 nM.

Turning to `CC(C)c1ccc([C@](O)(c2cnnc(C3CCOCC3)c2)C2(C)CN(C)C2)cc1` [Example 428, (R)-(1,3-Dimethyl-azetidin-3-yl)-(4-isopropyl-phenyl)-[6-(tetrahydro-pyran-4-yl)-pyridazin-4-yl]-methanol], the IC50 amounted to 598 nM. `CC(C)c1ccc([C@](O)(c2cnnc(CCC(C)(O)c3ccccc3)c2)C2(C)CN(C)C2)cc1` (stereo partly drawn) [Example 429, 4-{5-[(R)-(1,3-Dimethyl-azetidin-3-yl)-hydroxy-(4-isopropyl-phenyl)-methyl]-pyridazin-3-yl}-2-phenyl-butan-2-ol]: the half-maximal inhibitory concentration (IC50) was 103 nM. With `CC(C)c1ccc([C@](O)(c2cnnc(O[C@H]3CCOC3)c2)C2(C)CN(C)C2)cc1` [Example 430, (R)-(1,3-Dimethyl-azetidin-3-yl)-(4-isopropyl-phenyl)-{6-[(S)-(tetrahydro-furan-3-yl)oxy]-pyridazin-4-yl}-methanol], the IC50 worked out at 209 nM.

For `CC(C)c1ccc([C@](O)(c2cnnc(O[C@@H]3CCOC3)c2)C2(C)CN(C)C2)cc1` [Example 431, (R)-(1,3-Dimethyl-azetidin-3-yl)-(4-isopropyl-phenyl)-{6-[(R)-(tetrahydro-furan-3-yl)oxy]-pyridazin-4-yl}-methanol], the IC50 came out at 197 nM. Take `CC1CC(=O)N(c2cc([C@@](O)(c3ccc(C(C)C)cc3)C3(C)CN(C)C3)cnn2)C1` (stereo partly drawn) [Example 432]: the IC50 came to 146 nM. With `CC(C)c1ccc([C@](O)(c2cnnc(N3CCC(C(C)C)C3=O)c2)C2(C)CN(C)C2)cc1` (stereo partly drawn) [Example 433] the figure was 58.5 nM; with `CC(C)c1ccc([C@](O)(c2cnnc(N3CCC(C)(C)C3=O)c2)C2(C)CN(C)C2)cc1` [Example 434], 147 nM. In the case of `CC(C)c1ccc([C@](O)(c2cnnc(N3CC(C)(C)CC3=O)c2)C2(C)CN(C)C2)cc1` [Example 435], the IC50 turned out to be 175 nM. In the case of `CC(C)c1ccc([C@](O)(c2cnnc(N3CC(C(F)(F)F)CC3=O)c2)C2(C)CN(C)C2)cc1` (stereo partly drawn) [Example 437], the IC50 amounted to 95.2 nM. For `CC(C)c1ccc([C@](O)(c2cnnc(N3CC(C4CC4)CC3=O)c2)C2(C)CN(C)C2)cc1` (stereo partly drawn) [Example 438], the IC50 came to 53.6 nM.

As for `CC(C)c1ccc([C@](O)(c2cnnc(N3CC4(CCOCC4)CC3=O)c2)C2(C)CN(C)C2)cc1` [Example 439], the IC50 is 265 nM. For the compound `CC(C)c1ccc([C@](O)(c2cnnc(N3CC4(CCCCC4)OC3=O)c2)C2(C)CN(C)C2)cc1` [Example 440], the IC50 stood at 50.7 nM.

Turning to `CC(C)c1ccc([C@](O)(c2cnnc(N3CC(c4ccccn4)CC3=O)c2)C2(C)CN(C)C2)cc1` (stereo partly drawn) [Example 441], the IC50 was found to be 118 nM. Turning to `COCCC1CCN(c2cc([C@@](O)(c3ccc(C(C)C)cc3)C3(C)CN(C)C3)cnn2)C1=O` (stereo partly drawn) [Example 442], the 50% inhibitory concentration (IC50) stood at 177 nM. With `CC(C)c1ccc([C@](O)(c2cnnc(N3CC(c4ccccc4)CC3=O)c2)C2(C)CN(C)C2)cc1` (stereo partly drawn) [Example 443] the figure was 35.3 nM; with `CC(C)c1ccc([C@](O)(c2cnnc(N3Cc4ccccc4C3=O)c2)C2(C)CN(C)C2)cc1` [Example 444], 33.4 nM; with `CC(C)c1ccc([C@](O)(c2cncc(-c3noc(C(C)(C)O)n3)c2)C2(F)CN(C)C2)cc1` [Example 445, 2-(3-{5-[(S)-(3-Fluoro-1-methyl-azetidin-3-yl)-hydroxy-(4-isopropyl-phenyl)-methyl]-pyridin-3-yl}-[1,2,4]oxadiazol-5-yl)-propan-2-ol], 44.8 nM. Then `CC(C)c1ccc([C@](O)(c2cncc(-c3noc(C(C)(C)O)n3)c2)C2(F)CN(C3CC3)C2)cc1` [Example 446, 2-(3-{5-[(S)-(1-Cyclopropyl-3-fluoro-azetidin-3-yl)-hydroxy-(4-isopropyl-phenyl)-methyl]-pyridin-3-yl}-[1,2,4]oxadiazol-5-yl)-propan-2-ol], with 48.4 nM; and `CC(=O)N1CCC(c2nc(-c3cncc([C@@](O)(c4ccc(C(C)C)cc4)C4(F)CN(C)C4)c3)no2)CC1` [Example 447, 1-[4-(3-{5-[(S)-(3-Fluoro-1-methyl-azetidin-3-yl)-hydroxy-(4-isopropyl-phenyl)-methyl]-pyridin-3-yl}-[1,2,4]oxadiazol-5-yl)-piperidin-1-yl]-ethanone], with 43.2 nM; and `CC(=O)N1CCC(c2nc(-c3cncc([C@@](O)(c4ccc(C(C)C)cc4)C4(F)CN(C5CC5)C4)c3)no2)CC1` [Example 448, 1-[4-(3-{5-[(S)-(1-Cyclopropyl-3-fluoro-azetidin-3-yl)-hydroxy-(4-isopropyl-phenyl)-methyl]-pyridin-3-yl}-[1,2,4]oxadiazol-5-yl)-piperidin-1-yl]-ethanone], with 35.2 nM.
